According to ChEMBL document CHEMBL5126517, “Structure-Activity Relationship in the Leucettine Family of Kinase Inhibitors” (J Med Chem, 2022):

Columns and labels:
U2OS = assay: Induction of PI3K/mTor-dependent autophagy in human U2OS cells assessed as number of LC3 foci per cell at 10 uM measured after 4 hrs; format: cell-based; details: filed as activator
[1] = molecular target: Dual specificity protein kinase CLK3 (Mus musculus, UniProt O35492); assay: Inhibition of GST-fused mouse recombinant CLK3 expressed in Escherichia coli using GRSRSRSRSRSR peptide as substrate incubated for 30 mins in presence of ATP by scintillation counting method
Chain of Dual specificity protein kinase CLK3 (O35492 whole entry, the tested form may be a part): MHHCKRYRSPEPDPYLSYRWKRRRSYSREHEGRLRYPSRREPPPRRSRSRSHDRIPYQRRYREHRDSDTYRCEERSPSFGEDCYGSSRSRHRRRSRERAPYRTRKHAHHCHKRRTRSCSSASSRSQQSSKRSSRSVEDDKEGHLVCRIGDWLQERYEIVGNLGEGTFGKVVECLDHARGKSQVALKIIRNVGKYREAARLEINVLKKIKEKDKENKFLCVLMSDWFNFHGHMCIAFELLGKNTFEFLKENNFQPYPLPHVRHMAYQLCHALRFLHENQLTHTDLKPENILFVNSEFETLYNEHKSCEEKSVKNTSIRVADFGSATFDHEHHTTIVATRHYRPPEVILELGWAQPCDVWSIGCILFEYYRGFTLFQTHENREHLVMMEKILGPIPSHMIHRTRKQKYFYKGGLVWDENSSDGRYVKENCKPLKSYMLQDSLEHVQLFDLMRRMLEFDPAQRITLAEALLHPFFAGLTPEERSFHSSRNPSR

[2] = molecular target: T1, Dual specificity tyrosine-phosphorylation-regulated kinase 2 (Homo sapiens, UniProt Q92630); assay: Inhibition of GST-fused human recombinant DYRK2 expressed in Escherichia coli using GRSRSRSRSRSR peptide as substrate incubated for 30 mins in presence of ATP by scintillation counting method
T1 sequence (Q92630 whole entry): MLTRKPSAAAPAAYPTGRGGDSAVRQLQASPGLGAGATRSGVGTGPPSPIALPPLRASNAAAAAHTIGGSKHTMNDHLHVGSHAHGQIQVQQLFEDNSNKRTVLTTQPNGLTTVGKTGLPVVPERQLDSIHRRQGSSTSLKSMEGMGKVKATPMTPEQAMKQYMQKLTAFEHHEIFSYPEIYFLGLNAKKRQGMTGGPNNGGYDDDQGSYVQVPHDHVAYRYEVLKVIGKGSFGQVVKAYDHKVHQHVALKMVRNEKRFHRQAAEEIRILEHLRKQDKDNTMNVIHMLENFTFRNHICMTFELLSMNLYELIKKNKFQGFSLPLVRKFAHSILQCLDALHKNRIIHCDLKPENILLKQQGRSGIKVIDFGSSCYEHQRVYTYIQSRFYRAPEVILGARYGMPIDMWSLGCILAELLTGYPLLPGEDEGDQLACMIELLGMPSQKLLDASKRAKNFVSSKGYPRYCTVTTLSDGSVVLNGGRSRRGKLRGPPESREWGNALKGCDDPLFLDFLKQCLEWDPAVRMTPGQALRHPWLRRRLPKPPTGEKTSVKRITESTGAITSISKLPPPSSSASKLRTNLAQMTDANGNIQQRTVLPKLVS

[3] = Neurotoxicity against mouse HT-22 cells assessed as cell survival treated for 24 hrs by MTS assay; format: toxicity, cell-based
HT-22 [4] = assay: Modulation of CLK1 pre-mRNA splicing in mouse HT-22 cells assessed as inclusion of CLK1 exon 4 by measuring change in threshold cycle at 10 uM measured after 4 hrs by real time PCR analysis; format: cell-based; details: filed as modulator
[5] = molecular target: Dual specificity protein kinase CLK1 (Mus musculus, UniProt P22518); assay: Inhibition of GST-fused mouse recombinant CLK1 expressed in Escherichia coli using GRSRSRSRSRSR peptide as substrate incubated for 30 mins in presence of ATP by scintillation counting method
Chain of Dual specificity protein kinase CLK1 (P22518 whole entry, the tested form may be a part): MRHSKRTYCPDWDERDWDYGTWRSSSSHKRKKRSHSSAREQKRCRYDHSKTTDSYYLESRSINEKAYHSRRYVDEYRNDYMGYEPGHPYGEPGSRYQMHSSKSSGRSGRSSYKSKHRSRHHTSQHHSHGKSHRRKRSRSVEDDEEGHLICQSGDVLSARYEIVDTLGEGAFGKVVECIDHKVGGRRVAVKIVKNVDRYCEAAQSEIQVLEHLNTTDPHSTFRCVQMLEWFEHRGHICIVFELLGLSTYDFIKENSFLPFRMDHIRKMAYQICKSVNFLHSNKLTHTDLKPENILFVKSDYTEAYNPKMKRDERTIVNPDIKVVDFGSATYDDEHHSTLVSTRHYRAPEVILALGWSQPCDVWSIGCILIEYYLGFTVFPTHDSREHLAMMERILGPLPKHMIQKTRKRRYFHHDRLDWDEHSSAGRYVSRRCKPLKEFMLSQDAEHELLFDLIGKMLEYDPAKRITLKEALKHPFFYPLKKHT

[6] = molecular target: Dual specificity protein kinase CLK4 (Mus musculus, UniProt O35493); assay: Inhibition of GST-fused mouse recombinant CLK4 expressed in Escherichia coli using GRSRSRSRSRSR peptide as substrate incubated for 30 mins in presence of ATP by scintillation counting method
Chain of Dual specificity protein kinase CLK4 (O35493 whole entry, the tested form may be a part): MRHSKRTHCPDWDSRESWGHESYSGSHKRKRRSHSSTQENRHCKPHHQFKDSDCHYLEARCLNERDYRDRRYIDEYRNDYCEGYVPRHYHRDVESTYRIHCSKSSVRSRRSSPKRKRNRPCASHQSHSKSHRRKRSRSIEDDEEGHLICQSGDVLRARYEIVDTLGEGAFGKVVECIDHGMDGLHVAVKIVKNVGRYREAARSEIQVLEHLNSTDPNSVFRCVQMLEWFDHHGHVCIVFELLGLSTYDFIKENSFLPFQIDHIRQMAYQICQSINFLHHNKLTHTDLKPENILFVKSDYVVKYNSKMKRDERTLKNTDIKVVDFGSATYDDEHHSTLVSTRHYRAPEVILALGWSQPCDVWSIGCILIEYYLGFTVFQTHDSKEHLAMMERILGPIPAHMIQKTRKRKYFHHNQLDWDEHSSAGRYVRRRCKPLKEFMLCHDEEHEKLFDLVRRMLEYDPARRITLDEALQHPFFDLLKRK

[7] = molecular target: Glycogen synthase kinase-3 (Sus scrofa, UniProt B2LUN4+I6LNT8); assay: Inhibition of porcine brain GSK-3alpha/beta using YRRAAVPPSPSLSRHSSPHQpSEDEEE as substrate incubated for 30 mins in presence of ATP by scintillation counting method; format: tissue-based
[8] = molecular target: T2, Dual specificity tyrosine-phosphorylation-regulated kinase 3 (Homo sapiens, UniProt O43781); assay: Inhibition of GST-fused human recombinant DYRK3 expressed in Escherichia coli using GRSRSRSRSRSR peptide as substrate incubated for 30 mins in presence of ATP by scintillation counting method
T2 sequence (O43781 whole entry): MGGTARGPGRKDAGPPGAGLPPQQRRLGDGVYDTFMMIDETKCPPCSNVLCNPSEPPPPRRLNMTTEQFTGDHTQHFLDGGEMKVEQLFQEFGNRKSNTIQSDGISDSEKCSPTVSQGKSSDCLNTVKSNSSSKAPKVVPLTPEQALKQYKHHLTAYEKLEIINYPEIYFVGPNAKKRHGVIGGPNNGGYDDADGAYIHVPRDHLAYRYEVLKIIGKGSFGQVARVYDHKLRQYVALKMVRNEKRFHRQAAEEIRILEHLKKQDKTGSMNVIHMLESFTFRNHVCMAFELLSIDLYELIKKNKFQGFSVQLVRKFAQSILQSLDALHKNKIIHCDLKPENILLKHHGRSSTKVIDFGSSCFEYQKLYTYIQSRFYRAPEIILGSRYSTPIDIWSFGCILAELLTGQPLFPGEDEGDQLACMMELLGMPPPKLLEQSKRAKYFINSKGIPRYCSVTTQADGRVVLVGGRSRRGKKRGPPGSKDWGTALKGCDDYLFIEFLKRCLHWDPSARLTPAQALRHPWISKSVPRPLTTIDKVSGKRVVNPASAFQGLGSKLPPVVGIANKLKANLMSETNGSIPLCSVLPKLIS

[9] = molecular target: Dual specificity protein kinase CLK2 (Mus musculus, UniProt O35491); assay: Inhibition of mouse recombinant GST-fused CLK2 expressed in Escherichia coli using GRSRSRSRSRSR peptide as substrate incubated for 30 mins in presence of ATP by scintillation counting method
Chain of Dual specificity protein kinase CLK2 (O35491 whole entry, the tested form may be a part): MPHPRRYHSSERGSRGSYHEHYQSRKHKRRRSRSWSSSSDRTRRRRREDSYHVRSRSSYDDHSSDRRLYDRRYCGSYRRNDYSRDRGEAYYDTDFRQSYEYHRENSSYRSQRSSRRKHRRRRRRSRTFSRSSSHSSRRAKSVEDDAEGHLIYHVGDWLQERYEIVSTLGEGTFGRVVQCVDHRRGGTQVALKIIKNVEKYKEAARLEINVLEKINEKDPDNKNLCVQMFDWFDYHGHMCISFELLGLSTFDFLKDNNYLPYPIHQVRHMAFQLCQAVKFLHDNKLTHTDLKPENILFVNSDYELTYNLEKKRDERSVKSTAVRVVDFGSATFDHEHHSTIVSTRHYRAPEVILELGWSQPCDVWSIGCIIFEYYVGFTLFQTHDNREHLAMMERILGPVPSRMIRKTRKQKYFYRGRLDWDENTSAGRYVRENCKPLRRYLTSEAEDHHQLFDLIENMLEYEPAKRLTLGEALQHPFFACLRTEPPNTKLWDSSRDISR

Cannabinoid receptor 1 [10] = molecular target: T3, Cannabinoid receptor 1 (Homo sapiens, UniProt P21554); assay: Antagonist activity at CP-55940-activated CB1 receptor (unknown origin) at 10 uM by beta-arrestin assay relative to control; format: functional; set-up: scale not given: the % may be the effect or the level left
T3 sequence (P21554 whole entry, the tested form may be a part): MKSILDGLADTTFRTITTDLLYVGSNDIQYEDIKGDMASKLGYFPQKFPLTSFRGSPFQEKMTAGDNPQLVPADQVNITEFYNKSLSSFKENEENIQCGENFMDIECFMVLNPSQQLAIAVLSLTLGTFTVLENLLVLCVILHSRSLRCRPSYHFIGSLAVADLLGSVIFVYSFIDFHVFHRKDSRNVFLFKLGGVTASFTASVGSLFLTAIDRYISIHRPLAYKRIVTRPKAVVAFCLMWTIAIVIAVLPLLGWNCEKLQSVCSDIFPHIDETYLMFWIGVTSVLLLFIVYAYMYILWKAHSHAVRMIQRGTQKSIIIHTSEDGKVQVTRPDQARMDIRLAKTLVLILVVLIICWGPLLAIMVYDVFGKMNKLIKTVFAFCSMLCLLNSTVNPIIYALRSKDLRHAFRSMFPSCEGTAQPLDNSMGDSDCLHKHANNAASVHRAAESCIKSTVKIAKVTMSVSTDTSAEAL

[11] = molecular target: T4, Dual specificity tyrosine-phosphorylation-regulated kinase 1A (Homo sapiens, UniProt Q13627); assay: Inhibition of GST-fused human recombinant DYRK1A expressed in Escherichia coli using GRSRSRSRSRSR peptide as substrate incubated for 30 mins in presence of ATP by scintillation counting method
[12] = molecular target: Dual specificity tyrosine-phosphorylation-regulated kinase 1B (Homo sapiens, UniProt Q9Y463)
Chain of Dual specificity tyrosine-phosphorylation-regulated kinase 1B (Q9Y463 whole entry): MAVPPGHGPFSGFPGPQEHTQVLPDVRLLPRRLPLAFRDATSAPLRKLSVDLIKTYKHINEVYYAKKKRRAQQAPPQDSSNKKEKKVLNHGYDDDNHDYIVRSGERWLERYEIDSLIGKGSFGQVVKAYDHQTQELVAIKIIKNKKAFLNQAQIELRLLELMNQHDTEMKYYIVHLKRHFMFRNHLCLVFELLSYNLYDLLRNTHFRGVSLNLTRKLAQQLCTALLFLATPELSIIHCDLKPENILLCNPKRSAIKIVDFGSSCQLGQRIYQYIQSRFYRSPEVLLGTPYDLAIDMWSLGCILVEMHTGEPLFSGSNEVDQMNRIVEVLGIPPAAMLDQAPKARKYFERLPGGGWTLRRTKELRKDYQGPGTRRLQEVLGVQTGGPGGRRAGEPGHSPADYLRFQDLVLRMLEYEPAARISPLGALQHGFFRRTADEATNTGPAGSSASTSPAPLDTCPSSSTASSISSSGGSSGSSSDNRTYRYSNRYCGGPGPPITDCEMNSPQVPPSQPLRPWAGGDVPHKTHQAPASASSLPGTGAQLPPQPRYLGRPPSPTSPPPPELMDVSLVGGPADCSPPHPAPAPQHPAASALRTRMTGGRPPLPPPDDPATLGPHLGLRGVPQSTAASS

[13] = Neurotoxicity against mouse HT-22 cells assessed as cell survival at 20 uM treated for 24 hrs by MTS assay; format: toxicity, cell-based; details: ht-22, 24 h
[14] = molecular target: T4, Dual specificity tyrosine-phosphorylation-regulated kinase 1A; assay: Inhibition of DYRK1A in human SH-SY5Y overexpressing Tau4R cells assessed as phosphorylated Tau Thr212 residue level at 10 uM incubated for 6 hrs by western blot analysis relative to control; format: cell-based
HT-22 [15] = assay: Neuroprotective activity against glutamate-induced cell death in mouse HT-22 cells treated for 24 hrs by MTS assay; format: functional, cell-based; details: HT-22, 24 h
Casein kinase 2 = Casein kinase 2 (Homo sapiens, UniProt P67870+P68400+P19784+Q8NEV1); assay: Inhibition of human recombinant CK2 using RRRDDDSDDD peptide as substrate incubated for 30 mins in presence of ATP by scintillation counting method; format: protein assay
[16] = molecular target: Serine/threonine-protein kinase pim-1 (Homo sapiens, UniProt P11309); assay: Inhibition of human recombinant Pim1 expressed in Escherichia coli using histone H1 as substrate incubated for 30 mins in presence of ATP by scintillation counting method
Chain of Serine/threonine-protein kinase pim-1 (P11309 whole entry): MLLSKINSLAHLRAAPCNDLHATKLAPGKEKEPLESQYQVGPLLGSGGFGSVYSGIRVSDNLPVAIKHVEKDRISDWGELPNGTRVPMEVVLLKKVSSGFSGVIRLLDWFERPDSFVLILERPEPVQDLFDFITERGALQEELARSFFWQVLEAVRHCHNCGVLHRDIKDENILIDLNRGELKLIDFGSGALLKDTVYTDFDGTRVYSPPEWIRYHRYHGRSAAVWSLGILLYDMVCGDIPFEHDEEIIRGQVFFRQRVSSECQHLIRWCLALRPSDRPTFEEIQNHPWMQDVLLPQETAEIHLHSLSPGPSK

Cannabinoid receptor 1 [17] = molecular target: T3, Cannabinoid receptor 1; assay: Antagonist activity at CP-55940-activated CB1 receptor (unknown origin) by beta-arrestin assay; format: functional

## CCCNC1=N/C(=C\c2ccc3c(c2)OCO3)C(=O)N1c1ccccc1
U2OS
  Activity: 4.7
[1]
  IC50: 9500 nM
[2]
  IC50: 7200 nM
[3]
  EC50 at 24 h: > 20000 nM
HT-22 [4]
  deltaCT: -0.05
[5]
  IC50: 2000 nM
[6]
  IC50: 1200 nM
[7]
  IC50: > 10000 nM
[8]
  IC50: 7000 nM
[9]
  IC50: 2500 nM
Cannabinoid receptor 1 [10]
  Activity: -17.9%
[11]
  IC50: > 10000 nM
[12]
  IC50: > 10000 nM

## CCCCOc1ccc(/C=C2\N=C(Nc3ccccc3)NC2=O)cc1OC
U2OS
  Activity: 7.6
[13]
  Activity: Non-Toxic
Cannabinoid receptor 1 [10]; filed as antagonist
  Activity: 54.3%
[14]
  inhibition: -8%
HT-22 [15]
  EC50: 2450 nM

## CNC1=N/C(=C\c2ccc3c(c2)OCO3)C(=O)N1
U2OS
  Activity: 4.9
[1]
  IC50: 1200 nM
Casein kinase 2
  IC50: 1800 nM
[2]
  IC50: 130 nM
[3]
  EC50 at 24 h: > 20000 nM
HT-22 [4]
  deltaCT: 1
[5]
  IC50: 140 nM
[6]
  IC50: 94 nM
[7]
  IC50: 6200 nM
[13]
  Activity: Non-Toxic
[8]
  IC50: 480 nM
[9]
  IC50: 530 nM
Cannabinoid receptor 1 [10]
  Activity: -14.7%
[11]
  IC50: 160 nM
[16]
  IC50: 1200 nM
[12]
  IC50: 500 nM

## O=C1NC(Nc2ccc(-c3ccccc3)cc2)=N/C1=C\c1ccc2c(c1)OCO2
U2OS
  Activity: 6.8
[2]
  IC50: 4200 nM
[5]
  IC50: > 10000 nM
[6]
  IC50: 5200 nM
[13]
  Activity: Non-Toxic
[9]
  IC50: > 10000 nM
Cannabinoid receptor 1 [10]
  Activity: 36.8%
[11]
  IC50: 8100 nM
[14]
  inhibition: -5.1%
HT-22 [15]
  EC50: > 20000 nM
[12]
  IC50: > 10000 nM

## CCCCCCc1ccc(NC2=N/C(=C\c3ccc(O)c(OC)c3)C(=O)N2)cc1
U2OS
  Activity: 7.6
[2]
  IC50: ≥ 10000 nM
[3]
  EC50 at 24 h: > 20000 nM
Cannabinoid receptor 1 [17]
  IC50: 2000 nM
[5]
  IC50: > 10000 nM
[6]
  IC50: > 10000 nM
[8]
  IC50: > 10000 nM
Cannabinoid receptor 1 [10]; filed as antagonist
  Activity: 48.1%
[11]
  IC50: ≥ 10000 nM
[16]
  IC50: > 10000 nM
HT-22 [15]
  EC50: 270 nM
[12]
  IC50: ≥ 10000 nM

## CCNC1=N/C(=C\c2ccc3c(c2)OCO3)C(=O)N1
U2OS
  Activity: 5.6
[1]
  IC50: 2300 nM
Casein kinase 2
  IC50: 410 nM
[2]
  IC50: 190 nM
HT-22 [4]
  deltaCT: 2.64
[5]
  IC50: 65 nM
[6]
  IC50: 60 nM
[7]
  IC50: 2400 nM
[13]
  Activity: Non-Toxic
[8]
  IC50: 470 nM
[9]
  IC50: 380 nM
Cannabinoid receptor 1 [10]
  Activity: -40.4%
[11]
  IC50: 140 nM
[14]
  inhibition: -6%
[16]
  IC50: 1200 nM
[12]
  IC50: 480 nM

## O=C1NC(Nc2ccccc2)=N/C1=C\c1cccc(F)c1
U2OS
  Activity: 5.9
[3]
  IC50 at 24 h: > 20000 nM
Cannabinoid receptor 1 [17]
  IC50: 916 nM
Cannabinoid receptor 1 [10]; filed as antagonist
  Activity: 79.5%
[11]
  IC50: > 10000 nM
[16]
  IC50: > 10000 nM
HT-22 [15]
  EC50: 3500 nM
